The target of the assay is human APJ receptor (Homo sapiens (Human), UniProt P35414). As to the kind of experiment: [35S]GTPγS binding assay on membranes from CHO cells stably expressing human APJ receptor. The format is biochemical. The conditions noted are these: read-out: Activity hAPJ SPA EC50 IP. Put shortly: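 Agonist-driven [35S]GTPγS (0.2 nM) binding was measured over 90 min at room temperature on human APJ-expressing CHO membranes with bead capture, in buffer containing 3 μM GDP, 200 mM NaCl and 5 mM MgCl2 (pH 7.5). Excess unlabelled GTPγS (100 μM) gave nonspecific signal; EC50 from non-linear fits.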
human APJ receptor, sequence (P35414 whole entry): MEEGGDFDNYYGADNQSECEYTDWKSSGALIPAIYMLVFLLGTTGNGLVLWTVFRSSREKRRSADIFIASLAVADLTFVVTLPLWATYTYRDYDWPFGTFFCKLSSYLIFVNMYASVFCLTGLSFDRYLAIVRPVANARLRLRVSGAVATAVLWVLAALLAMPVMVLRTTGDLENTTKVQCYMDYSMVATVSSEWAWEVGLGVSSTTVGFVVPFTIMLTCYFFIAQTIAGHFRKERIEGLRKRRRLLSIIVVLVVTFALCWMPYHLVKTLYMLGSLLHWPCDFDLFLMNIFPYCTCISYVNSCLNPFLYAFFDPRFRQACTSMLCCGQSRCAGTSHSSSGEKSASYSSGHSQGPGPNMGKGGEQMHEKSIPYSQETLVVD
(Binding of GTPγS marks nucleotide exchange on a G protein.)

As a reminder, the EC50 is the concentration at which the effect is half-maximal. With “(1S,2S)-N-(4-(1,3-dimethoxy-2-propanyl)-5-((2R,5R)-5-methyltetrahydro-2-furanyl)-4H-1,2,4-triazol-3-yl)-1-(5-fluoro-2-pyrimidinyl)-1-(2-propanyloxy)-2-propanesulfonamide or (1S,2S)-N-(4-(1,3-dimethoxy-2-propanyl)-5-((2S,5S)-5-methyltetrahydro-2-furanyl)-4H-1,2,4-triazol-3-yl)-1-(5-fluoro-2-pyrimidinyl)-1-(2-propanyloxy)-2-propanesulfonamide [Example 361.0]”, the EC50 was 10 nM. In the case of “(1S,2S)-N-(4-(1,3-dimethoxy-2-propanyl)-5-((2R,5R)-5-methyltetrahydro-2-furanyl)-4H-1,2,4-triazol-3-yl)-1-(5-methoxy-2-pyrimidinyl)-1-(2-propanyloxy)-2-propanesulfonamide or (1S,2S)-N-(4-(1,3-dimethoxy-2-propanyl)-5-((2S,5S)-5-methyltetrahydro-2-furanyl)-4H-1,2,4-triazol-3-yl)-1-(5-methoxy-2-pyrimidinyl)-1-(2-propanyloxy)-2-propanesulfonamide [Example 362.0]” it was 390 nM; in that of “(1S,2S)-N-(4-(1,3-dimethoxy-2-propanyl)-5-((2R,5R)-5-methyltetrahydro-2-furanyl)-4H-1,2,4-triazol-3-yl)-1-(5-methoxy-2-pyrimidinyl)-1-(2-propanyloxy)-2-propanesulfonamide or (1S,2S)-N-(4-(1,3-dimethoxy-2-propanyl)-5-((2S,5S)-5-methyltetrahydro-2-furanyl)-4H-1,2,4-triazol-3-yl)-1-(5-methoxy-2-pyrimidinyl)-1-(2-propanyloxy)-2-propanesulfonamide [Example 363.0]”, 28 nM. As to “(1S,2S)-N-(4-(1,3-dimethoxy-2-propanyl)-5-((2R,5R)-5-methyltetrahydro-2-furanyl)-4H-1,2,4-triazol-3-yl)-1-(5-methyl-2-pyrazinyl)-1-(2-propanyloxy)-2-propanesulfonamide or (1S,2S)-N-(4-(1,3-dimethoxy-2-propanyl)-5-((2S,5S)-5-methyltetrahydro-2-furanyl)-4H-1,2,4-triazol-3-yl)-1-(5-methyl-2-pyrazinyl)-1-(2-propanyloxy)-2-propanesulfonamide [Example 364.0]”, the EC50 stood at 69 nM. Then “(1S,2S)-N-(4-(1,3-dimethoxy-2-propanyl)-5-((2R,5R)-5-methyltetrahydro-2-furanyl)-4H-1,2,4-triazol-3-yl)-1-(5-methyl-2-pyrazinyl)-1-(2-propanyloxy)-2-propanesulfonamide or (1S,2S)-N-(4-(1,3-dimethoxy-2-propanyl)-5-((2S,5S)-5-methyltetrahydro-2-furanyl)-4H-1,2,4-triazol-3-yl)-1-(5-methyl-2-pyrazinyl)-1-(2-propanyloxy)-2-propanesulfonamide [Example 365.0]”, with 72 nM; and “(1S,2S)-N-(4-(1,3-dimethoxy-2-propanyl)-5-((2R,5R)-5-methyltetrahydro-2-furanyl)-4H-1,2,4-triazol-3-yl)-1-(5-methyl-2-pyridinyl)-1-(2-propanyloxy)-2-propanesulfonamide or (1S,2S)-N-(4-(1,3-dimethoxy-2-propanyl)-5-((2S,5S)-5-methyltetrahydro-2-furanyl)-4H-1,2,4-triazol-3-yl)-1-(5-methyl-2-pyridinyl)-1-(2-propanyloxy)-2-propanesulfonamide [Example 366.0]”, with 680 nM; and “(1S,2S)-N-(4-(1,3-dimethoxy-2-propanyl)-5-((2R,5R)-5-methyltetrahydro-2-furanyl)-4H-1,2,4-triazol-3-yl)-1-(5-methyl-2-pyridinyl)-1-(2-propanyloxy)-2-propanesulfonamide or (1S,2S)-N-(4-(1,3-dimethoxy-2-propanyl)-5-((2S,5S)-5-methyltetrahydro-2-furanyl)-4H-1,2,4-triazol-3-yl)-1-(5-methyl-2-pyridinyl)-1-(2-propanyloxy)-2-propanesulfonamide [Example 367.0]”, with 12 nM.

As for “(1S,2S)-N-(4-(1,3-dimethoxy-2-propanyl)-5-((2R,5R)-5-methyltetrahydro-2-furanyl)-4H-1,2,4-triazol-3-yl)-1-(5-methyl-2-pyrimidinyl)-1-(2-propanyloxy)-2-propanesulfonamide or (1S,2S)-N-(4-(1,3-dimethoxy-2-propanyl)-5-((2S,5S)-5-methyltetrahydro-2-furanyl)-4H-1,2,4-triazol-3-yl)-1-(5-methyl-2-pyrimidinyl)-1-(2-propanyloxy)-2-propanesulfonamide [Example 358.0]”, the EC50 is 430 nM. As to “(1S,2S)-N-(4-(1,3-dimethoxy-2-propanyl)-5-((2R,5R)-5-methyltetrahydro-2-furanyl)-4H-1,2,4-triazol-3-yl)-1-(5-methyl-2-pyrimidinyl)-1-(2-propanyloxy)-2-propanesulfonamide or (1S,2S)-N-(4-(1,3-dimethoxy-2-propanyl)-5-((2S,5S)-5-methyltetrahydro-2-furanyl)-4H-1,2,4-triazol-3-yl)-1-(5-methyl-2-pyrimidinyl)-1-(2-propanyloxy)-2-propanesulfonamide [Example 359.0]”, the EC50 was 11 nM. For the substance “(1S,2S)-N-(4-(2,6-dimethoxyphenyl)-5-((3R)-tetrahydro-3-furanyl)-4H-1,2,4-triazol-3-yl)-1-(5-methyl-2-pyridinyl)-1-(2-propanyloxy)-2-propanesulfonamide or (1S,2S)-N-(4-(2,6-dimethoxyphenyl)-5-((3S)-tetrahydro-3-furanyl)-4H-1,2,4-triazol-3-yl)-1-(5-methyl-2-pyridinyl)-1-(2-propanyloxy)-2-propanesulfonamide [Example 407.0]”, the EC50 was 10 nM. Then “(1S,2S)-N-(4-(2,6-dimethoxyphenyl)-5-((S)-1,4-dioxan-2-yl)-4H-1,2,4-triazol-3-yl)-1-isopropoxy-1-(5-methylpyrimidin-2-yl)propane-2-sulfonamide and (1S,2S)-N-(4-(2,6-dimethoxyphenyl)-5-((R)-1,4-dioxan-2-yl)-4H-1,2,4-triazol-3-yl)-1-isopropoxy-1-(5-methylpyrimidin-2-yl)propane-2-sulfonamide [Example 256.0]”, with 15 nM; and “(1S,2S)-N-(4-(2,6-dimethoxyphenyl)-5-((S)-5,5-dimethyltetrahydrofuran-2-yl)-4H-1,2,4-triazol-3-yl)-1-isopropoxy-1-(5-methylpyrimidin-2-yl)propane-2-sulfonamide or (1S,2S)-N-(4-(2,6-dimethoxyphenyl)-5-((R)-5,5-dimethyltetrahydrofuran-2-yl)-4H-1,2,4-triazol-3-yl)-1-isopropxy-1-(5-methylpyrimidin-2-yl)propane-2-sulfonamide [Example 210.0]”, with 0.62 nM; and “(1S,2S)-N-(4-(4,6-dimethoxypyrimidin-5-yl)-5-((R)-5,5-dimethyltetrahydrofuran-3-yl)-4H-1,2,4-triazol-3-yl)-1-isopropoxy-1-(5-methylpyrimidin-2-yl)propane-2-sulfonamide or (1S,2S)-N-(4-(4,6-dimethoxypyrimidin-5-yl)-5-((S)-5,5-dimethyltetrahydrofuran-3-yl)-4H-1,2,4-triazol-3-yl)-1-isopropoxy-1-(5-methylpyrimidin-2-yl)propane-2-sulfonamide [Example 313.0]”, with 530 nM.

Source of the values: patent US10150760B2, “Compounds for use in preparing heterocyclic triazole agonists of the APJ receptor” (AMGEN INC., priority 2016, dated 2018).
